Results: patent US20200255844A1, “MULTIPLEXED RECEPTOR-LIGAND INTERACTION SCREENS” (THE REGENTS OF THE UNIVERSITY OF CALIFORNIA, priority 2017, published 2020)

What was measured:
MOR170-1 = assay: High-throughput multiplexed odorant screening (Smell-seq), 96-well, barcode RNA-seq readout; assay type: cell-based, mouse; conditions: OR MOR170-1; pair called as hit, FDR=1%
Procedure: 10. High-Throughput Odorant Screening
The OR library cell line was thawed from a liquid nitrogen frozen stock into a T-225 flask (Corning) three days before seeding into a 96-well plate for screening. The library was seeded at 6,666 cells per well in 100 ul of DMEM. 24 hours later a working concentration of 1 ug/ml of doxycycline in DMEM was added to the wells. 24 hours after induction, the media was removed from each plate and replaced with 25 ul of odorant diluted in OptiMEM. Each odor was added at three different concentrations (10 uM, 100 uM, 1 mM) in triplicate with the same amount of final DMSO (1%). Each plate contained two control odorants at a three concentration (10 uM, 100 uM, 1 mM) in triplicate and three wells containing 1% DMSO dissolved in media. The library was incubated with odorants for three hours in a cell culture incubator with the lids removed.
After odor incubation, media was pipetted out of the plates and cells were lysed by adding 25 uL of ice-cold Cells-to-cDNA II Lysis Buffer (Thermo Fisher) and pipetting up and down to homogenize and lyse cells. The lysate was then heated to 75° C. for 15 minutes and flash frozen with liquid nitrogen and kept at −80 C until further processing. Then 0.5 uL DNase I (New England Biolabs) was added to lysate, and incubated at 37° C. for 15 minutes. To anneal the RT primer, 5 ul of lysate from each well was combined with 2.5 ul of 10 mM dNTPs (New England Biosciences), 1 ul of 2 uM gene specific RT primer (OL003), and 1.5 ul of H2O. The reaction was heated to 65° C. for 5 min and cooled back down to 0° C. After annealing, 1 ul of M-MuLV Reverse Transcriptase (Enzymatics), 1 ul of buffer, and 0.25 ul of RNase Inhibitor (Enzymatics) were added to each reaction. Reactions were incubated at 42° C. for 60 min and the RT enzyme was heat inactivated at 85° C. for 10 min.
For each batch, qPCR was performed on a few wells (OL005F and OL013) with SYBR FAST qPCR Mastermix to determine the number of cycles necessary for PCR based library preparation. The reaction and cycling conditions are optimized as follows: 95° C. for 3 minutes, 40 cycles of 95° C. for 3 seconds and 60° C. for 20 seconds. After qPCR, 5 ul of each RT reaction was combined with 0.4 ul of 10 uM primers containing sequencing adaptors (OL005F and OL013), 10 ul of NEB-Next Q5 Mastermix (New England Biosciences) and 4.2 ul H2O, the PCR was carried out according to the manufacturer's protocol. The forward primer contains the P7 adaptor sequence and an index identifying the well in the assay and the reverse primer contains the P5 adaptor sequence and an index identifying the plate in the assay. PCR products were pooled together by plate and purified with the DNA Clean and Concentrator Kit. Library concentrations were quantified using a Tape Station 2200 and a Qubit (Thermo Fisher). The libraries were sequenced with two index reads and a single end 75-bp read on a NextSeq 500 in high-output mode (Illumina).
11. Analysis of Next-Generation Sequencing Data
Samples were identified via indexing by their PCR indexes adapters unique for each well (5′ end) and unique for each plate (3′ end). The well barcodes followed the 7 bp indexing scheme in (Illumina Sequencing Library Preparation for Highly Multiplexed Target Capture and Sequencing Matthias Meyer, Martin Kircher, Cold Spring Harb Protoc; 2010; doi:10.1101/pdb.prot5448). The plate indexing scheme followed the Illumina indexing scheme. Sequencing data was demultiplexed and 15 bp barcode sequences were counted with only exact matches by custom python and bash scripts.
12. Statistical Methods for Calling Hits
Count data was then analyzed using the differential expression package EdgeR. To filter out ORs with low representation, we set a cutoff that an OR had to contain at least 0.5% of the reads from more than 399 of the 1954 test samples. This filtered out 3 of 42 ORs which were underrepresented in the cell library (MOR172-1, MOR176-1 and MOR181-1). […]

Olfr62 = assay: High-throughput multiplexed odorant screening (Smell-seq), barcode RNA-seq readout; assay type: cell-based, mouse; conditions: OR Olfr62; pair called as hit, FDR=1%
In short: (§1)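 Odorants were screened at three concentrations in triplicate against the pooled OR cell library. Each plate included positive control odorants and DMSO solvent wells for normalization. Responsive ORs were called from barcode counts with a negative binomial model (EdgeR) at FDR=1%, Benjamini-Hochberg corrected.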

MOR 199-1 = assay: as above; assay type: cell-based, mouse; conditions: OR MOR 199-1; pair called as hit, FDR=1%
In short: as §1

MOR132-1 = biological target: T1, MOR132-1 (Mus musculus, UniProt Q8VFM9); assay: as above; assay type: cell-based; conditions: OR MOR132-1; pair called as hit, FDR=1%
T1 construct: protein trafficking tags (N); expressed in transfected cells; host or cells: HEK293T-derived cells (Mukku3a), PiggyBac transposon, Tet-On inducible
Excerpt: (§2) We subsequently screened 182 odorants at three concentrations in triplicate against the OR cell library, the equivalent of ˜85,000 individual luciferase assays including controls (FIG. 10A, Table 2). Each 96-well plate in the assay contained positive control odorants and solvent DMSO wells for normalization (FIG. 16). We used the EdgeR software package to determine differentially responsive ORs based on a negative binomial model of barcode counts. We found 114 OR-odorant interactions (out of 7,200 possible), 81 of which are novel, and 24 interactions with 15 orphan receptors (FIG. 10C, FIG. 17 and Supplementary Table 4) (FDR=1%; Benjamini-Hochberg correction). Overall 28 of 39 receptors were activated by at least one odorant, and 68 of 182 odorants activated at least one OR (Table 4). We chose 37 interactions of at least 1.2 fold induction to test individually with a previously developed transient OR assay that has several important differences (FIG. 18). Of the 28 interactions called as hits at an FDR of 1%, 21 of them replicated in this orthogonal system (FIG. 17). […] Conversely, we also detect 14 interactions that this previous study tested, but called negative.

MOR189-1 = assay: as above; assay type: cell-based, mouse; conditions: OR MOR189-1; pair called as hit, FDR=1%
In short: as §1

MOR142-1 = assay: as above; assay type: cell-based, mouse; conditions: OR MOR142-1; pair called as hit, FDR=1%
In short: as §1

MOR120-1 = assay: as above; assay type: cell-based, mouse; conditions: OR MOR120-1; pair called as hit, FDR=1%
In short: as §1

MOR30-1 = assay: as above; assay type: cell-based, mouse; conditions: OR MOR30-1; pair called as hit, FDR=1%
In short: as §1

MOR102-1 = assay: as above; assay type: cell-based, mouse; conditions: OR MOR102-1; pair called as hit, FDR=1%
In short: as §1

MOR208-1 = assay: as above; assay type: cell-based, mouse; conditions: OR MOR208-1; pair called as hit, FDR=1%
In short: as §1

MOR180-1 = biological target: T2, MOR180-1 (Mus musculus, UniProt Q8VGS3); assay: as above; assay type: cell-based; conditions: OR MOR180-1; pair called as hit, FDR=1%
T2 construct: protein trafficking tags (N); expressed in transfected cells; host or cells: HEK293T-derived cells (Mukku3a), PiggyBac transposon, Tet-On inducible
Excerpt: as §2

T1 sequence (Q8VFM9 whole entry): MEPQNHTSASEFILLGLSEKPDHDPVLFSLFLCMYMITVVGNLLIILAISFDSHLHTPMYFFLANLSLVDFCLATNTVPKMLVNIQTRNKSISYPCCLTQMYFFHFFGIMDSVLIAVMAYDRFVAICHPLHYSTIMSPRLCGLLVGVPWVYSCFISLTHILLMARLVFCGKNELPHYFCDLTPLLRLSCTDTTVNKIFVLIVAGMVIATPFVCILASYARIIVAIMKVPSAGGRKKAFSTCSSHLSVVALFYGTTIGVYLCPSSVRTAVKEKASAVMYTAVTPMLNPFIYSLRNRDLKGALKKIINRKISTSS
T2 sequence (Q8VGS3 whole entry): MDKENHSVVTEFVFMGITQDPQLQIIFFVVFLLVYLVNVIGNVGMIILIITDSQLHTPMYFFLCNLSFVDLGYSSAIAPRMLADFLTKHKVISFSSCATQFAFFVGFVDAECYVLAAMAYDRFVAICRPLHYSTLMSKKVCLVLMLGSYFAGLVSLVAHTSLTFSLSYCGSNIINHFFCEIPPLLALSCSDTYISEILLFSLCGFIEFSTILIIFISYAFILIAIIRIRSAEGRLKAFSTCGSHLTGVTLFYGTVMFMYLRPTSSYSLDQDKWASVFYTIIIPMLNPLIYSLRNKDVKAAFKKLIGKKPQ

With `CCc1occc(=O)c1O` [ethyl maltol] the “Minimum Activating Concentration” value (MOR170-1) was 1000 µM, the “Minimum Activating Concentration” value (Olfr62) was 1000 µM and the “Minimum Activating Concentration” value (MOR 199-1) was 100 µM.

`CC(=O)O[C@]1(C)CC[C@@]23C[C@@H]1C(C)(C)[C@@H]2CC[C@H]3C` [Cedryl acetate] was tested, and the “Minimum Activating Concentration” value (MOR132-1) was 1000 µM, the “Minimum Activating Concentration” value (MOR189-1) was 1000 µM and the “Minimum Activating Concentration” value (MOR142-1) was 1000 µM. For the same compound, the “Minimum Activating Concentration” value (MOR120-1) was 1000 µM, the “Minimum Activating Concentration” value (MOR30-1) was 1000 µM and the “Minimum Activating Concentration” value (MOR102-1) was 1000 µM. For the same compound, the “Minimum Activating Concentration” value (MOR208-1) was 1000 µM.

In the case of `CCCCC/C(=C\c1ccccc1)C(OC)OC` [a-Amylcinnamaldehyde dimethyl acetal], the “Minimum Activating Concentration” value (MOR180-1) is reported as 1000 µM.
